Laboratory results from ChEMBL document CHEMBL1139242, “Peptide deformylase inhibitors of Mycobacterium tuberculosis: synthesis, structural investigations, and biological results” (Bioorg Med Chem Lett, 2008).
In brackets after ≈: the same amount, converted by molar mass.

test system: Mycobacterium tuberculosis; test: Antimicrobial activity against Mycobacterium bovis BCG after 4 days by alamar blue assay; type: functional; conditions: variant bovis BCG, 96 h

Point of comparison: `CCCC[C@H](CC(=O)O)C(=O)N1CCC[C@H]1c1nc2ccccc2[nH]1`, MIC 9 µg/mL (≈ 26.2 µM). Against it:
- CCCC[C@H](CN(O)C=O)C(=O)N1CCC[C@H]1c1nc2ccccc2[nH]1 — 15-fold lower, 0.6 µg/mL (≈ 1.67 µM)
- O=CN(O)C[C@@H](CC1CC1)C(=O)N1CCC[C@H]1c1nc2ccccc2o1 — 7.5-fold lower, 1.2 µg/mL (≈ 3.36 µM)
- CCCC[C@H](CC(=O)O)C(=O)N1CCC[C@H]1c1nc2ccccc2o1 — the same, 9 µg/mL (≈ 26.1 µM)
- CCCC[C@H](C(=O)NO)C(=O)N1CCC[C@H]1c1nc2ccccc2[nH]1 — 2-fold lower, 4.5 µg/mL (≈ 13.1 µM)
- CCCCC[C@H](CN(O)C=O)C(=O)N1CCC[C@H]1c1nc2ccccc2o1 — 15-fold lower, 0.6 µg/mL (≈ 1.61 µM)
- CCC[C@H](CN(O)C=O)C(=O)N1CCC[C@H]1c1nc2ccccc2o1 — 2-fold lower, 4.5 µg/mL (≈ 13 µM)
- O=CN(O)C[C@@H](Cc1ccccc1)C(=O)N1CCC[C@H]1c1nc2ccccc2[nH]1 — the same, 9 µg/mL (≈ 22.9 µM)
- CCC[C@H](CN(O)C=O)C(=O)N1CCC[C@H]1c1nc2ccccc2[nH]1 — the same, 9 µg/mL (≈ 26.1 µM)
- CCCCC[C@H](CN(O)C=O)C(=O)N1CCC[C@H]1c1nc2ccccc2[nH]1 — 7.5-fold lower, 1.2 µg/mL (≈ 3.22 µM)
- CCCC[C@H](CN(O)C=O)C(=O)N1CCC[C@H]1c1nc2ccccc2o1 — 15-fold lower, 0.6 µg/mL (≈ 1.67 µM)
- CCCC[C@H](C(=O)NO)C(=O)N1CCC[C@H]1c1nc2ccccc2o1 — 2-fold lower, 4.5 µg/mL (≈ 13 µM)
- O=CN(O)C[C@@H](Cc1ccccc1)C(=O)N1CCC[C@H]1c1nc2ccccc2o1 — the same, 9 µg/mL (≈ 22.9 µM)
- O=CN(O)C[C@@H](CC1CC1)C(=O)N1CCC[C@H]1c1nc2ccccc2[nH]1 — 7.5-fold lower, 1.2 µg/mL (≈ 3.37 µM)
